Laboratory results: patent US9486449B2, “Cancer therapy” (priority 2007, dated 2016)
Values joined by “and” are separate entries in the source; they are usually repeats but may differ in a detail not shown here. Equal entries are not always repeated. Structures can show the parent of a compound that is named as a salt.

Key:
[1] = test system: α-tubulin with γ-tubulin; assay: Co-immunoprecipitation of α-tubulin with γ-tubulin in cancer cells; assay type: cell-based
[2] = biological target: T1, binding of γ-tubulin to kinesin-14/HSET (Homo sapiens, UniProt Q9BW19); assay: Co-IP of kinesin-14/HSET with γ-tubulin in MDA-MB-231 cells; assay type: cell-based; conditions: 48 hours, PJ-34 20 μM, Tiq-A 100 μM, Phen(6) 50 μM
T1 sequence (Q9BW19 1-673): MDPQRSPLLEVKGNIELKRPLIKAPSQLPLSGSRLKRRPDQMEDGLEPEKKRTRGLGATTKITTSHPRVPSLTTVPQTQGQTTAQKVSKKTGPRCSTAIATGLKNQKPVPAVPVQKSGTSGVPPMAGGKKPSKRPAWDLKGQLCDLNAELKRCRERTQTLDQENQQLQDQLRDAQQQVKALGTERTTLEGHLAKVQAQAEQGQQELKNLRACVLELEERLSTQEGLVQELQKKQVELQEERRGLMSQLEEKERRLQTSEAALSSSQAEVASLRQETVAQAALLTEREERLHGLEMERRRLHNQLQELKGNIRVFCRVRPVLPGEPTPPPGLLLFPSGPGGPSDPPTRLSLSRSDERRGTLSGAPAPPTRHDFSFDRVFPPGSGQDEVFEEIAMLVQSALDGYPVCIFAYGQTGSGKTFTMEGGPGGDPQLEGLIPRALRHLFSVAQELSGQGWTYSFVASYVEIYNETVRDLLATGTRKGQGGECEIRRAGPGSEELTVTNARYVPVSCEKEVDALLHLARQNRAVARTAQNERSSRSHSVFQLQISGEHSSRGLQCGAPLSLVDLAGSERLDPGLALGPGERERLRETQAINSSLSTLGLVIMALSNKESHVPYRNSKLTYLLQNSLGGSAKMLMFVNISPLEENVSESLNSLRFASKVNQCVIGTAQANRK
Description: Thus, PJ-34, Tiq-A and Phen interfered with the co-immunoprecipitation of HSET with γ-tubulin.

[3] = biological target: PARP-1 (Homo sapiens, UniProt P09874); conditions: cited from earlier work; for EC50: read-out: EC50 for PARP1 inhibition
PARP-1, sequence (P09874 whole entry, species assumed): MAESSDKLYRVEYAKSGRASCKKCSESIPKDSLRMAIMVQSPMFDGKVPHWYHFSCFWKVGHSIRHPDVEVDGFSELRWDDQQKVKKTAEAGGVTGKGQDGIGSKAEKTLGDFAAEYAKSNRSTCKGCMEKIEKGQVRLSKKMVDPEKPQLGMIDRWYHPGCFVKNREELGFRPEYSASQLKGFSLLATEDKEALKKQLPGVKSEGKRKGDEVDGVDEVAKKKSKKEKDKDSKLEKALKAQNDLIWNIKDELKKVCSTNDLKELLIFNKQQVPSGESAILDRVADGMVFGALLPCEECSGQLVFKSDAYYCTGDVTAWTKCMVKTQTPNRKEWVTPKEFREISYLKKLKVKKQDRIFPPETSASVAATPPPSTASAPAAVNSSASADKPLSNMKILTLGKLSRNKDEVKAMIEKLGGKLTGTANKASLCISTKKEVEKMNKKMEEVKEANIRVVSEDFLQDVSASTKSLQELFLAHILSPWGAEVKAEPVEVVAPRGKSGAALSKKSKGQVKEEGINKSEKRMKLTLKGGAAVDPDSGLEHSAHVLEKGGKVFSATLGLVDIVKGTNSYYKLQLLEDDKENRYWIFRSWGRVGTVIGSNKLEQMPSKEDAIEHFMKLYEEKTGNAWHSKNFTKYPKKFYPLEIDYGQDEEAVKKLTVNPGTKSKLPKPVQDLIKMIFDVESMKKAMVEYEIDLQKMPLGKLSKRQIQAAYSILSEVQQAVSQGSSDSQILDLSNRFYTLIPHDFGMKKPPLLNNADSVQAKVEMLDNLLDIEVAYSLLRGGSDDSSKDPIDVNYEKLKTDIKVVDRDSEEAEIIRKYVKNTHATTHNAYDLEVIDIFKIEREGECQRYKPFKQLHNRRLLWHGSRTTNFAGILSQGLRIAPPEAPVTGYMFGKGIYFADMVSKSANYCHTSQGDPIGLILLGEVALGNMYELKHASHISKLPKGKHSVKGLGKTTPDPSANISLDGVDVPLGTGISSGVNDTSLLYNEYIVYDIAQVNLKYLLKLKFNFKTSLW

[4] = test system: MCF-7 brca1+/+ cells; conditions: 10 μM, 10 consecutive days; cited from earlier work
[5] = test system: CAPANI cells (which are deficient in brca2); conditions: cited from earlier work
[6] = test system: extra-centrosomes de-clustering in human cancer cells; assay: Extra-centrosomes de-clustering; assay type: cell-based
[7] = Tolerability of slow-release PJ-34 in nude mice; assay type: in vivo
Protocol: . In vivo experiments were carried out in nude female mice (nu/nu) injected subcutaneously with MCF-7 or MDA-MB-231 cells (FIG. 15). […]. In the control nude mice, pumps contained only PBS, or pumps were not implanted. Each mouse was injected subcutaneously with approximately 10^7 MCF-7 or MDA-MB-231 cells dispersed in Matrigel. Tumors developed within 6 to 7 weeks in the control mice injected with MCF-7 cells and within 10 days in the control mice injected with MDA231 cells. One mouse died 3 weeks after being injected with MDA-MB-231 cells. […]

[8] = test system: MDA-MB-231 xenotransplants; assay: MDA-MB-231 xenotransplants in nude mice, PJ-34 by subcutaneous osmotic pump; assay type: in vivo, mouse; conditions: PJ-34 treated, tumor-free mice
Protocol: Xenotransplants were developed in female CD-1 nu/nu 5 to 6 weeks old. MCF-7 and MDA 231 cells were injected subcutaneously, about 10^7 MCF-7 or MDA231 cells in 150 μl of PBS and 150 μl of Martigel Basement Membrane Matrix Becton Dickinson, Bedford, Mass., USA; In Israel Bactolab Diagnostics). In mice treated with PJ-34, injection was adjacent to subcutaneous osmotic pumps dripping PJ-34 by a slow release. The mice were maintained under specific pathogen-free conditions with access to mouse chow and water ad libitum. […]. Subcutaneous implantation of these pumps was performed before injection by a veterinarian (Dr. Kastel David). All the experiments with nude mice conform to the Guide for the Care and Use of Laboratory Animals published by the NIH (publication No. 85-23, revised 1996). Approval was granted by the Israeli Ministry of Health ethics review board in the Tel-AvivUniversity (M08033).
In vivo experiments were carried out in nude female mice (nu/nu) injected subcutaneously with MCF-7 or MDA-MB-231 cells (FIG. 15). […]. In the control nude mice, pumps contained only PBS, or pumps were not implanted. Each mouse was injected subcutaneously with approximately 10^7 MCF-7 or MDA-MB-231 cells dispersed in Matrigel. Tumors developed within 6 to 7 weeks in the control mice injected with MCF-7 cells and within 10 days in the control mice injected with MDA231 cells. […]

[9] = test system: MCF-7 breast cancer cells; assay: Survival of MCF-7 cells after single application (cell count, microscopy); assay type: cell-based, human; conditions: for MCF-7 survival: 48 to 72 hours, 10 μM PJ-34, Tiq-A 100 μM, Phen 50 μM; for killing of MCF-7 cells: Example 7, single application 24 h after seeding, Tiq-A 50/100 μM 72 h, Phen 25 μM 48 h / 50 μM 72 h
Protocol: Cells were cultured in 6-wells multi-dish plates (Nunc Denmark). MCF-7 and MDA231 cells were cultured in 6-wells multi-dish plates (Nunc Denmark). MCF-7 and MDA231 cells were maintained in a medium containing DMEM (cat #01055-1A), 10% Horse serum (cat #04-124-1A), 1% L-Glutamine (cat #03-020-1B), and 1% Pen-Strep Ampho (cat #03-033-1B) (Gibco, Invitrogene, purchased from Rhenium, Jerusalem 91035 Israel.
MCF-7 cells were seeded (about 50,000/well) in 6-well plates. […]. […] […].
The effect of PARP inhibitors on MCF-7 and MDA-MB-231 human breast cancer cells was examined (cells were seeded in about 500,000 cells/[…] well in six-well plates). […]. The damage was irreversible. […]. […] […].

[10] = test system: U-87 Glioblastoma cells; assay: Viability of U-87 glioblastoma cells (FACS); assay type: cell-based, human; conditions: 0.5-30 μM, single application; 72 and 96 h (PJ-34), 96 h (Phen, Tiq-A)
Protocol: The malignant U-87 Glioblastoma cells were incubated with these molecules applied once 24 hours after seeding. Cell viability was measured by FACS. The results of 3 different experiments carried in duplicates are presented.

[11] = test system: MDA-MB-231 xenotransplants; assay: MDA-MB-231 xenotransplants in nude mice, PJ-34 intra-peritoneal; assay type: in vivo, mouse; conditions: 50 mg/kg PJ-34 i.p. daily for 14 days, started at palpable tumors; individual treated mice (untreated 750 and 850); HCl
Protocol: In vivo experiments were carried out in nude female mice (nu/nu) injected subcutaneously with MDA-MB-231 cells (FIG. 32). […] About 10^6 cells were injected in 100 μl of MEM (Gibco, Rhenium, Jerusalem Israel) and 100 μl of Matrigel Basement Membrane Matrix (Becton Dickinson, Bedford, Mass., USA; In Israel, Bactolab Diagnostics). Two weeks after injection with MDA-MB-231 cells, palpable (50-80 mm^3) tumors developed in all the female nude mice. One pair of mice remained un-treated. […] Tumors' size was measured every day in all the mice (both treated and untreated). The treated mice were photographed on the first day and on the last day of treatment. Tumor sizes were 750 mm^3 and 850 mm^3 in the untreated mice, versus 130 mm^3 and 150 mm^3 in the treated mice.

[12] = test system: MDA-MB-231 breast cancer cells; assay: Survival of MDA-MB-231 cells after single application
Description: Each value is an average value of three measurements obtained in three different experiments.

[13] = test system: brain cortical neurons; assay: Effect on quiescent cells: brain cortical neurons; assay type: cell-based; conditions: 10 to 30 μM PJ-34, 100 μM Tiq-A, 50 μM Phen
[14] = test system: cardiomyocytes; assay: Effect on quiescent cells: cardiomyocytes; assay type: cell-based; conditions: 10 to 30 μM PJ-34, 100 μM Tiq-A, 50 μM Phen
[15] = test system: HCC1937 (triple negative, BRCA deficient) human breast cancer cells; assay: Combination of MEK and PARP inhibitors on HCC1937 cells; assay type: cell-based; conditions: 48 hours; PJ-34 5 or 10 μM or Tiq-A 50 μM with 5 μM U0126
[16] = biological target: T2, HSET (Homo sapiens, UniProt Q9BW19); assay: Post translational modification of HSET in MDA-MB-231 cells (pI shift, 2-D gel electrophoresis); assay type: cell-based; conditions: ABT888 at 5-20 μM
T2 sequence (Q9BW19 1-673): T1 sequence (Q9BW19 1-673)
Protocol: Post translational modifications of HSET in MDA-MB-231 breast cancer cells (FIG. 24B-I) were measured by the shifts in its isoelectric point (pI). […] Also, HSET is not modified in normal epithelial cells MCF10A. The vertical lines mark the point of loading of the proteins including HSET in the cell extracts. The arrows mark the shifted pI of HSET. In untreated MDA-MB-231 cells, the largest shift in pI of HSET was to pH 5.6 in the untreated MDA-MB-231 cells.

C[C@]1(c2nc3c(C(N)=O)cccc3[nH]2)CCCN1 [ABT888, reference compound]
co-immunoprecipitation of α-tubulin with γ-tubulin [1]: not | binding of γ-tubulin to kinesin-14/HSET [2]: did not affect the binding

CN(C)Cc1ccc(-c2nc3cccc4c3n2CCNC4=O)cc1 [AG14361, reference compound]
Ki ([3]; PARP-1): < 5 nM | cells eradicated [4]: 50%

O=C1CCC(=O)N1c1cc(Cc2n[nH]c(=O)c3ccccc23)ccc1F [KU0058684]
inhibition of CAPANI cells [5]: inhibited

Cc1nc2c(O)cccc2c(=O)[nH]1 [NU1025]
inhibition of CAPANI cells [5]: not inhibited

CN(C)CC(=O)Nc1ccc2[nH]c(=O)c3ccccc3c2c1 [PJ-34, N-(6-oxo-5,6-dihydro-phenanthridin-2-yl)-N,N-dimethylacetamide, HCl]
concentration at which PJ-34 acts as centrosomes de-clustering agent [6]: above 20 microM | viability, growth or behavior of the mice ([7]; 3 months after 14-day osmotic pump treatment (Example 6)): did not affect viability, growth or behavior | vitality, growth, development, or any other behavior of treated mice ([7]; 14-day slow release of PJ-34, follow-up periods (Example 11)): did not affect the vitality, growth, development, or any other behavior | survival of the other 3 treated mice [8]: more than 4 months | cell death ([9]; 48 hours after single application of 10-20 μM PJ-34): more than 99.5% | MCF-7 cells eradicated ([9]; 48 hours of incubation with 10 μM PJ-34): More than 99% | cytotoxicity in glioblastoma cancer cells [10]: cytotoxic in glioblastoma cancer cells at high concentrations | Tumor sizes [11]: 130 mm^3 and 150 mm^3

O=c1[nH]c2ccccc2c2ccccc12 [Phen, 6-(5H)-phenanthridinone]
EC50 [3]: 120 nM | killing of MDA-MB-231 breast cancer cells [12]: efficient killing | impairment of quiescent cells [13]: not impaired at all | binding of γ-tubulin to kinesin-14/HSET [2]: interfered with the binding | MCF-7 survival [9]: did not survive | killing of MCF-7 cells [9]: efficient in killing MCF-7 cells | cytotoxicity in glioblastoma cancer cells [10]: cytotoxic in glioblastoma cancer cells at high concentrations | impairment of quiescent cells [14]: not impaired at all

O=c1[nH]c2sccc2c2ccccc12 [Tiq-A, 4H-thieno[2,3-c]isoquinolin-5-one]
EC50 [3]: 450 nM | effect of combination with MEK inhibitor U0126 versus each inhibitor alone [15]: synergistic effect | post translational modification of HSET (pI shift) [16]: prevent the post translational modification | killing of MDA-MB-231 breast cancer cells [12]: efficient killing | impairment of quiescent cells [13]: not impaired at all | binding of γ-tubulin to kinesin-14/HSET [2]: interfered with the binding | MCF-7 survival [9]: did not survive | killing of MCF-7 cells [9]: efficient in killing MCF-7 cells | cytotoxicity in glioblastoma cancer cells [10]: cytotoxic in glioblastoma cancer cells at high concentrations | impairment of quiescent cells [14]: not impaired at all
